Experimental data: US6875578B2, “System for cell-based screening” (priority 1997, dated 2005)
Entries after “also recorded” stand apart in the source; their conditions may differ.

How the values were obtained:
[1] = system: p38 MAPK and NF-κB pathways; test: Dual labeling assay of the p38 MAPK and NF-κB pathways; assay type: cell-based; settings: added alone; two different cell types
Excerpt: The assay we present here measures, as one of its parameters, p38 activation using immunolocalization of the phosphorylated form of p38 in toxin-treated cells. The assay was developed to be flexible enough to include the simultaneous measurement of other parameters within the same individual cells. Because the signal transduction pathway mediated by the transcription factor NF-κB is also known to be involved in the cell stress response, we included the activation of NF-κB as a second parameter in the same assay.
Multiple cell types, model toxins, and antibodies were tested, and significant stimulation of both pathways was measured in a high-content mode. The phospho-p38 antibodies used in this study were purchased from Sigma Chemical Company (St. Louis, Mo.). We report that at least two cell stress signaling pathways can not only be measured simultaneously, but are differentially responsive to classes of model toxins.

[2] = system: microtubule arrays (tubulin-GFP chimera); test: Microtubule disruption assay, LLCPK cells with tubulin-GFP biosensor; assay type: cell-based, pig; settings: 10-500 nM, 12 hour time point
Procedure: For microtubule disruption assays, LLCPK cells stably transfected with a tubulin-GFP biosensor plasmid were plated on 96 well cell culture dishes at 50-60% confluence and cultured overnight at 37° C., 5% CO2. […] The cells were then observed with the cell screening system described above, at a 12 hour time point.

caspase-3 [3] = test: Caspase-3 biosensor apoptosis assay, BHK cells; assay type: cell-based; settings: BHK cells transfected with the caspase 3 biosensor
Procedure: (§1) For DNA transfection, BHK cells and MCF-7 cells were cultured to 50-70% confluence in 6 well plates containing 3 ml of minimal Eagle's medium (MEM) with 10% fetal calf serum, 1 mM L-glutamine, 50 μg/ml streptomycin, 50 μg/ml penicillin, 0.1 mM non-essential amino acids, 1 mM sodium pyruvate and 10 μg/ml of bovine insulin (for MCF-7 cell only) at 37° C. in a 5% CO2 incubator for about 36 hours. The cells were washed with serum free MEM media and incubated for 5 hours with 1 ml of transfection mixture containing 1 μg of the appropriate plasmid and 4 μg of lipofectimine (BRL) in the serum free MEM media. Subsequently, the transfection medium was removed and replaced with 3 ml of normal culture media. The transfected cells were maintained in growth medium for at least 16 hours before performing selection of the stable cells based on standard molecular biology methods (Ausubel. et al 1995).
For apoptosis assays, the cells (BHK, MCF-7) stably transfected with the appropriate protease biosensor expression vector were plated on tissue culture treated 96-well plates at 50-60% confluence and cultured overnight at 37° C., 5% CO2. […]
(§2) The biosensor response is measured by quantitating the effective cytoplasm-to-nuclear translocation of the signal (see above). […]

caspase-3 [4] = settings: MCF-7 cells; accompanied by cleavage of PARP; cited from earlier work
caspase-3 [5] = test: Caspase-3 biosensor apoptosis assay, MCF-7 cells; assay type: cell-based; settings: MCF-7 cells
Procedure: as §1
For apoptosis assays, the cells (BHK, MCF-7) stably transfected with the appropriate protease biosensor expression vector were plated on tissue culture treated 96-well plates at 50-60% confluence and cultured overnight at 37° C., 5% CO2. Varying concentrations of cis-platin, staurosporine, or paclitaxel in normal culture media were freshly prepared from stock and added to cell culture dishes to replace the old culture media. The cells were then observed with the cell screening system of the present invention at the indicated time points either as live cell experiments or as fixed end-point experiments.
This biosensor is restricted to the cytoplasm by the reactant target sequence. The reactant target sequence is the annexin II cytoskeletal binding domain ([…]) (SEQ ID NO:124) (FIG. 29C) (Eberhard et al. 1997. Mol. Biol. Cell 8:293a). The enzyme recognition site corresponds to two copies of the amino acid sequence DEVD (SEQ ID NO:60) (FIG. 29B), which serves as the recognition site of caspase-3. […]
as §2

MCF-7 cells [6] = test: Apoptosis nuclear morphology, MCF-7 cells; assay type: cell-based; settings: 30 hours
Procedure: (§3) Cells were plated into 96-well plates at densities of 3×10^3 to 1×10^4 cells/well. The following day apoptotic inducers were added at indicated concentrations and cells were incubated for indicated time periods (usually 16-30 hours). The next day medium was removed and cells were stained with 5 μg/ml Hoechst (Molecular Probes, Inc.) in fresh medium and incubated for 30 minutes at 37° C. Cells were washed in Hank's Balanced Salt Solution (HBSS) and fixed with 3.7% formaldehyde in HBSS at room temperature. Cells were washed 2×with HBSS at room temperature and the plate was sealed.
(§4) Quantitation of changes in nuclear morphology upon induction of apoptosis was accomplished by (1) measuring the effective size of the nuclear region; and (2) measuring the degree of convolution of the perimeter.

L929 cells [7] = test: Apoptosis nuclear morphology, L929 cells; assay type: cell-based, mouse; settings: 30 hours
Procedure: as §3, §4

MCF-7 cells [8] = test: Apoptosis mitochondrial mass/potential, MCF-7 cells; assay type: cell-based; settings: 30 hours
Procedure: (§5) Cells were plated into 96-well plates at densities of 3×10^3 to 1×10^4 cells/well. The following day apoptotic inducers were added at the indicated concentrations and cells were incubated for the indicated time periods (usually 16-30 hours). Cells were stained with 5 μg/ml Hoechst (Molecular Probes, Inc.) and 750 nM MITOTRACKER™ Red (CMXRos, Molecular Probes, Inc.) in fresh medium and incubated for 30 minutes at 37° C. Cells were washed in HBSS and fixed with 3.7% formaldehyde in HBSS at room temperature. Plates were washed with HBSS and permeabilized with 0.5% v/v TRITON™ X-100 in HBSS at room temperature. Cells were washed 2× with HBSS at room temperature and the plate was sealed. For dual labeling of mitochondria, cells were treated with 200 nM MITOTRACKER™ Green and 200 nM MITOTRACKER™ Red for 0.5 hours before fixation.
(§6) The mitochondrial membrane potential is measured by labeling mitochondria with both MITOTRACKER™ Green FM and MITOTRACKER™ Red (Molecular Probes, mc). MITOTRACKER™ Red labeling is proportional to both mass and membrane potential. MITOTRACKER™ Green FM labeling is proportional to mass. The ratio of MITOTRACKER™ Red signal to the MITOTRACKER™ Green FM signal provides a measure of mitochondrial membrane potential (Poot and Pierce, 1999). This ratio normalizes the […]. […]

BHK cells [9] = test: Apoptosis mitochondrial mass/potential, BHK cells; assay type: cell-based; settings: 30 hours
Procedure: as §5, §6

BHK cells [10] = test: Apoptosis actin reorganization (f-actin content), BHK cells; assay type: cell-based; settings: 30 hours
Procedure: (§7) Cells were plated in 96-well plates at densities of 3×10^3 to 1×10^4 cells/well. The following day apoptotic inducers were added at indicated concentrations. Cells were incubated for the indicated time periods (usually 16-30 hours). The next day the medium was removed and cells were stained with 5 μg/ml Hoechst (Molecular Probes, Inc.) in fresh medium and incubated for 30 minutes at […]. Cells were washed in HBSS and fixed with 3.7% formaldehyde in HBSS at room temperature. Plates were washed with HBSS and permeabilized with 0.5% v/v Triton X-100 in HBSS at room temperature. Plates were washed in HBSS and stained with 100 μl of 1 U/ml of Alexa 488 Phalloidin stock (100 μl/well, Molecular Probes, Inc.). Cells were washed 2×with HBSS at RT and the plate was sealed.
(§8) Quantitation of f-actin content was accomplished by measuring the intensity of phalloidin staining around the nucleus. This was determined to be a reasonable approximation of a full cytoplasmic average of the intensity. The mask used to approximate this cytoplasmic measure was derived from the nuclear mask defined by the Hoechst stain. Derivation was accomplished by combinations of erosions and dilations.

L929 cells [11] = test: Apoptosis mitochondrial mass/potential, L929 cells; assay type: cell-based, mouse; settings: 30 hours
Procedure: as §5, §6

L929 cells [12] = test: Apoptosis actin reorganization (f-actin content), L929 cells; assay type: cell-based, mouse; settings: 30 hours
Procedure: as §7, §8

BHK cells [13] = test: Apoptosis nuclear morphology, BHK cells; assay type: cell-based; settings: 30 hours
Procedure: as §3, §4

MCF-7 cells [14] = test: Apoptosis actin reorganization (f-actin content), MCF-7 cells; assay type: cell-based; settings: 30 hours
Procedure: as §7, §8

NF-κB [15] = test: NF-κB immunolocalization in toxin treated 3T3 cells; assay type: cell-based
Excerpt: (§9) For further studies, we characterized endogenous NF-κB activation by immunolocalization in toxin treated cells. The NF-κB antibodies used in this study were purchased from Santa Cruz Biotechnology, Inc. (Santa Cruz, Calif.), and secondary antibodies are from Molecular Probes (Eugene, Oreg.).
(§10) For the 3T3 and SNB19 cell types, we determined the effective concentrations that yield response levels of 50% of the maximum (EC50), expressed in units of mass per volume (ng/ml) and units of molarity. Based on molecular weights of 17 kD for both TNFα and IL-1α, the EC50 levels for these two compounds with 3T3 and SNB19 cell types are given in units of molarity in Table 1.
(§11) For these experiments, either 10 or 100 TNFα-treated 3T3 or SNB19 cells/well were tested. On the basis of the standard deviations measured for these samples, and by taking t-values for the student's t-test, we have estimated the minimum detectable doses for each case of cell type, compound, number of cells per well, and for different choices of how many wells are sampled per condition. The latter factor determines the number of degrees of freedom that are provided in the sample of data. Increasing the number of wells from 4 to 16, and increasing the number of cells per well from 10 to 100, improves the minimum detectable doses considerably. […] If the false positive rate is relaxed to 20%, a concentration of approximately half that value can be detected (0.83 ng/ml). One hundred cells can conveniently be sampled over a cell culture surface area of less than 1 mm^2.

NF-κB [16] = test: NF-κB immunolocalization in toxin treated SNB19 cells; assay type: cell-based; settings: based on molecular weights of 17 kD, read-out: EC50 (NF-κB activation)
Excerpt: as §9, §10
as §11, with “data.” for “data. Increasing the number of wells from 4 to 16, and increasing the number of cells per well from 10 to 100, improves the minimum detectable doses considerably.”, “One hundred cells can conveniently be sampled over a cell culture surface area of less than 1 mm^2.” left out

Compound: COc1ccc(C[C@H]2NC[C@H](O)[C@H]2OC(C)=O)cc1 [Anisomycin]
- differential response of the p38 MAPK and NF-κB pathways [1]: activators of specific pathways

Compound: C=CC[C@@H](CC/C(C)=C/C=C/CC/C=C\[C@@H]1CSC([C@@H]2C[C@@H]2C)=N1)OC [Curacin A]
- Response of microtubule arrays [2]: Destabilization

Compound: COC(=O)Nc1nc2ccc(C(=O)c3cccs3)cc2[nH]1 [Nocodazole]
- Response of microtubule arrays [2]: Destabilization

Compound: CC[C@]1(O)C[C@@H]2CN(CCc3c([nH]c4ccccc34)[C@@](C(=O)OC)(c3cc4c(cc3OC)N(C)[C@H]3[C@@](O)(C(=O)OC)[C@H](OC(C)=O)[C@]5(CC)C=CCN6CC[C@]43[C@@H]65)C2)C1 [Vinblastine]
- Response of microtubule arrays [2]: Destabilization

Compound: N.N.[Cl][Pt][Cl] [cis-platin]
- caspase activation reported by the biosensor (caspase-3 [3]): accumulation of fluorescence in the nucleus

Compound: COc1cc([C@@H]2c3cc4c(cc3[C@@H](O[C@@H]3O[C@@H]5CO[C@@H](C)O[C@H]5[C@H](O)[C@H]3O)[C@H]3COC(=O)[C@H]23)OCO4)cc(OC)c1O [etoposide]
- time of peak response in caspase-3 activity after stimulation (caspase-3 [4]): 6 h
- Caspase-3 activity with the caspase biosensor (caspase-3 [5]; 15 h treatment with 100 μM etoposide): not detected

Compound: CN[C@@H]1C[C@H]2O[C@@](C)([C@@H]1OC)n1c3ccccc3c3c4c(c5c6ccccc6n2c5c31)C(=O)NC4 [staurosporine]
- change in nuclear morphology (MCF-7 cells [6]): nuclear condensation
- change in nuclear morphology (L929 cells [7]): dose-dependent change in nuclear morphology
- change in nuclear morphology (L929 cells [7]; listed as Staurosporine): classic nuclear fragmentation
- mitochondrial changes (mass / membrane potential) (MCF-7 cells [8]): consistent decrease in mitochondrial membrane potential; also recorded: a decrease in membrane potential
- mitochondrial changes (mass / membrane potential) (BHK cells [9]): either a decrease in membrane potential at lower concentrations of staurosporine, or an increase in mass at higher concentrations of staurosporine; also recorded: increases in mitochondrial mass
- change in peri-nuclear f-actin content (BHK cells [10]): dose-dependent increase in f-actin
- change in peri-nuclear f-actin content (BHK cells [10]; listed as Staurosporine): induced increases in f-actin
- mitochondrial changes (mass / membrane potential) (L929 cells [11]): clear increase in mitochondrial mass; also recorded: increases in mitochondrial mass
- change in peri-nuclear f-actin content (L929 cells [12]): dose-dependent increases in f-actin content
- change in peri-nuclear f-actin content (L929 cells [12]; listed as Staurosporine): induced increases in f-actin
- change in nuclear morphology (BHK cells [13]): concentration dependent changes
- change in nuclear morphology (BHK cells [13]; listed as Staurosporine): nuclear condensation at lower doses and nuclear fragmentation at higher doses
- change in peri-nuclear f-actin content (MCF-7 cells [14]): either a decrease or increase depending on the concentration of staurosporine
- change in peri-nuclear f-actin content (MCF-7 cells [14]; listed as Staurosporine): concentration-dependent response
- magnitude of caspase activation relative to comparator (caspase-3 [5]; maximum magnitude): approximately one-half that demonstrated with cis-platin in BHK cells

Compound: IL-1α: model toxin, molecular weight 17 kD
- EC50 (NF-κB activation) (NF-κB [15]; based on molecular weights of 17 kD): 0.24 10^−12 moles/liter
- EC50 (NF-κB [16]): 59 pM
- differential response of the p38 MAPK and NF-κB pathways [1]: activators of specific pathways

Compound: tumor necrosis factor [TNFα]
- EC50 value (NF-κB activation) (NF-κB [15]): 0.15 ng/mL
- EC50 (NF-κB [15]; based on molecular weights of 17 kD, read-out: EC50 (NF-κB activation)): 8.8 pM
- EC50 (NF-κB [16]): 5.9 pM
- differential response of the p38 MAPK and NF-κB pathways [1]: activators of specific pathways
